Measured values published in patent US9833497B2, “Human originated EGF domain proteins and use of the same” (CHENGDU SOURCEBIO LIMITED-LIABILITY COMPANY, priority 2013, dated 2017).

Legend:
Format in all cases: cell-based
Enterobacter cloacae = assay: MIC against Gram-negative bacteria: Enterobacter cloacae; conditions: 5×10^5 CFU/mL
In short: (§1)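 MIC = lowest concentration of recombinant protein showing no growth. Test proteins: purified human-derived EGF domain proteins, two-fold dilution series, three wells per concentration; inoculum 5×10^5 CFU/mL in LB; incubation 37° C with shaking at 175 rpm.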

Proteus mirabilis = assay: MIC against Gram-negative bacteria: Proteus mirabilis; conditions: 5×10^5 CFU/mL
In short: as §1

Serratia marcescens = assay: MIC against Gram-negative bacteria: Serratia marcescens; conditions: 5×10^5 CFU/mL
In short: as §1

Citrobacter diversus = assay: MIC against Gram-negative bacteria: Citrobacter diversus; conditions: 5×10^5 CFU/mL
In short: as §1

Moraxella catarrhalis = assay: MIC against Gram-negative bacteria: Moraxella catarrhalis; conditions: 5×10^5 CFU/mL
In short: as §1

Proteus vulgaris = assay: MIC against Gram-negative bacteria: Proteus vulgaris; conditions: 5×10^5 CFU/mL
In short: as §1

E. coli DH5α = assay: Antibacterial activity: MIC and growth curve against E. coli DH5α in 96-well plate; conditions: minimal inhibitory concentration against E. coli DH5α; 96-well plate, 5×10^5 CFU/mL, 37° C., judged after 8 h
In short: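 Log-phase DH5α (OD600 about 0.5, 37° C, 185 rpm in LB) was pelleted, resuspended in fresh LB and seeded at 5×10^5 CFU/mL with recombinant protein at 50, 25 and 12.5 μg/mL (two-fold series), in triplicate. Plates were shaken at 175 rpm, 37° C, and OD600 was read every 30 min. MIC was the lowest concentration with no growth.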

Aeromonas hydrophila = assay: MIC against Gram-negative bacteria: Aeromonas hydrophila; conditions: 5×10^5 CFU/mL
In short: as §1

E. coli BL21 = assay: MIC against Gram-negative bacteria: E. coli BL21; conditions: 5×10^5 CFU/mL
In short: as §1

Pseudomonas aeruginosa = assay: MIC against Gram-negative bacteria: Pseudomonas aeruginosa; conditions: 5×10^5 CFU/mL
In short: as §1

Klebsiella pneumonia = assay: MIC against Gram-negative bacteria: Klebsiella pneumonia; conditions: 5×10^5 CFU/mL
In short: as §1

[1] = 10 h cultivation at 37° C., two-fold serial dilution
[2] = Enterobacter cloacae, 96-well plate, 37° C., 10 h
[3] = Proteus mirabilis, 96-well plate, 37° C., 10 h
[4] = Serratia marcescens, 96-well plate, 37° C., 10 h
[5] = Citrobacter diversus, 96-well plate, 37° C., 10 h
[6] = Moraxella catarrhalis, 96-well plate, 37° C., 10 h
[7] = Proteus vulgaris, 96-well plate, 37° C., 10 h
[8] = Aeromonas hydrophila, 96-well plate, 37° C., 10 h
[9] = Pseudomonas aeruginosa, 96-well plate, 37° C., 10 h
[10] = Klebsiella pneumonia, 96-well plate, 37° C., 10 h

PRT530 (CSCDPEHADGCEQGSGRCHCKPNFHGDNCEKCAIGYYNFPFCLR; listed as Homo sapiens)
MIC against E. cloacae (Enterobacter cloacae; 96-well plate, 37° C., 10 h): 25 µg/mL | MIC against P. mirabilis (Proteus mirabilis; 96-well plate, 37° C., 10 h): 25 µg/mL | MIC against S. marcescens (Serratia marcescens; 96-well plate, 37° C., 10 h): 25 µg/mL | MIC against C. diversus (Citrobacter diversus; 96-well plate, 37° C., 10 h): 25 µg/mL | MIC against M. catarrhalis (Moraxella catarrhalis; 96-well plate, 37° C., 10 h): 50 µg/mL | MIC against P. vulgaris (Proteus vulgaris; 96-well plate, 37° C., 10 h): 12.5 µg/mL | MIC (E. coli DH5α): 50 µg/mL | MIC against A. hydrophila (Aeromonas hydrophila; 96-well plate, 37° C., 10 h): 12.5 µg/mL | MIC against E. coli BL21 (E. coli BL21; 96-well plate, 37° C., 10 h): 12.5 µg/mL | MIC against P. aeruginosa (Pseudomonas aeruginosa; 96-well plate, 37° C., 10 h): 25 µg/mL | MIC against K. pneumonia (Klebsiella pneumonia; 96-well plate, 37° C., 10 h): 50 µg/mL

PRT1193 (DANECEGKPCLNAFSCKNLIGGYYCDCIPGWKGINCH; listed as Homo sapiens)
MIC E. cloacae (Enterobacter cloacae; [1]): 12.5 µg/mL | MIC P. mirabilis (Proteus mirabilis; [1]): 50 µg/mL | MIC S. marcescens (Serratia marcescens; [1]): 12.5 µg/mL | MIC C. diversus (Citrobacter diversus; [1]): 25 µg/mL | MIC M. catarrhalis (Moraxella catarrhalis; [1]): 12.5 µg/mL | MIC P. vulgaris (Proteus vulgaris; [1]): 25 µg/mL | MIC (E. coli DH5α): 12.5 µg/mL | MIC A. hydrophila (Aeromonas hydrophila; [1]): 12.5 µg/mL | MIC E. coli BL21 (E. coli BL21; [1]): 12.5 µg/mL | MIC P. aeruginosa (Pseudomonas aeruginosa; [1]): 12.5 µg/mL | MIC K. pneumonia (Klebsiella pneumonia; [1]): 25 µg/mL

PRT114 (PKYGCNFNNGGCHQDCFEGGDGSFLCGCRPGFRLLDDLVTCA; listed as Homo sapiens)
MIC (μg/mL) E. cloacae (Enterobacter cloacae; [2]): 12.5 µg/mL | MIC (μg/mL) P. mirabilis (Proteus mirabilis; [3]): 12.5 µg/mL | MIC (μg/mL) S. marcescens (Serratia marcescens; [4]): 12.5 µg/mL | MIC (μg/mL) C. diversus (Citrobacter diversus; [5]): 12.5 µg/mL | MIC (μg/mL) M. catarrhalis (Moraxella catarrhalis; [6]): 12.5 µg/mL | MIC (μg/mL) P. vulgaris (Proteus vulgaris; [7]): 12.5 µg/mL | MIC (E. coli DH5α): 12.5 µg/mL | MIC (μg/mL) A. hydrophila (Aeromonas hydrophila; [8]): 25 µg/mL | MIC (μg/mL) E. coli BL21 (E. coli BL21; 96-well plate, 37° C., 10 h): 12.5 µg/mL | MIC (μg/mL) P. aeruginosa (Pseudomonas aeruginosa; [9]): 12.5 µg/mL | MIC (μg/mL) K. pneumonia (Klebsiella pneumonia; [10]): 25 µg/mL

PRT706 (EVNHCSNYCQNGGTCVPSVLGRPTCSCALGFTGPNCG; listed as Homo sapiens)
MIC E. cloacae (Enterobacter cloacae; 96-well plate, 37° C., 10 h): 25 µg/mL | MIC P. mirabilis (Proteus mirabilis; 96-well plate, 37° C., 10 h): 12.5 µg/mL | MIC S. marcescens (Serratia marcescens; 96-well plate, 37° C., 10 h): 12.5 µg/mL | MIC C. diversus (Citrobacter diversus; 96-well plate, 37° C., 10 h): 12.5 µg/mL | MIC M. catarrhalis (Moraxella catarrhalis; 96-well plate, 37° C., 10 h): 50 µg/mL | MIC P. vulgaris (Proteus vulgaris; 96-well plate, 37° C., 10 h): 50 µg/mL | MIC (E. coli DH5α): 25 µg/mL | MIC A. hydrophila (Aeromonas hydrophila; 96-well plate, 37° C., 10 h): 50 µg/mL | MIC E. coli BL21 (E. coli BL21; 96-well plate, 37° C., 10 h): 50 µg/mL | MIC P. aeruginosa (Pseudomonas aeruginosa; 96-well plate, 37° C., 10 h): 12.5 µg/mL | MIC K. pneumonia (Klebsiella pneumonia; 96-well plate, 37° C., 10 h): 12.5 µg/mL

PRT108 (VKDHCSKHSPCQKGGTCVNMPSGPHCLCPQHLTGNHCQ; listed as Homo sapiens)
MIC (μg/mL) E. cloacae (Enterobacter cloacae; [2]): 25 µg/mL | MIC (μg/mL) P. mirabilis (Proteus mirabilis; [3]): 12.5 µg/mL | MIC (μg/mL) S. marcescens (Serratia marcescens; [4]): 12.5 µg/mL | MIC (μg/mL) C. diversus (Citrobacter diversus; [5]): 25 µg/mL | MIC (μg/mL) M. catarrhalis (Moraxella catarrhalis; [6]): 50 µg/mL | MIC (μg/mL) P. vulgaris (Proteus vulgaris; [7]): 12.5 µg/mL | MIC (E. coli DH5α): 50 µg/mL | MIC (μg/mL) A. hydrophila (Aeromonas hydrophila; [8]): 12.5 µg/mL | MIC (μg/mL) E. coli BL21 (E. coli BL21; 96-well plate, 37° C., 10 h): 12.5 µg/mL | MIC (μg/mL) P. aeruginosa (Pseudomonas aeruginosa; [9]): 25 µg/mL | MIC (μg/mL) K. pneumonia (Klebsiella pneumonia; [10]): 50 µg/mL

PRT608 (CDCNGRSQECYFDPELYRSTGHGGHCTNCQDNTDGAHCERCRENFFRLGNNEACSS; listed as Homo sapiens)
MIC E. cloacae (Enterobacter cloacae; 96-well plate, 37° C., 10 h): 25 µg/mL | MIC P. mirabilis (Proteus mirabilis; 96-well plate, 37° C., 10 h): 25 µg/mL | MIC S. marcescens (Serratia marcescens; 96-well plate, 37° C., 10 h): 25 µg/mL | MIC C. diversus (Citrobacter diversus; 96-well plate, 37° C., 10 h): 25 µg/mL | MIC M. catarrhalis (Moraxella catarrhalis; 96-well plate, 37° C., 10 h): 50 µg/mL | MIC P. vulgaris (Proteus vulgaris; 96-well plate, 37° C., 10 h): 12.5 µg/mL | MIC (E. coli DH5α): 12.5 µg/mL | MIC A. hydrophila (Aeromonas hydrophila; 96-well plate, 37° C., 10 h): 12.5 µg/mL | MIC E. coli BL21 (E. coli BL21; 96-well plate, 37° C., 10 h): 50 µg/mL | MIC P. aeruginosa (Pseudomonas aeruginosa; 96-well plate, 37° C., 10 h): 12.5 µg/mL | MIC K. pneumonia (Klebsiella pneumonia; 96-well plate, 37° C., 10 h): 50 µg/mL

PRT157 (VADPCASNPCHHGNCSSSSSSSSDGYLCICNEGYEGPNCE; listed as Homo sapiens)
MIC (μg/mL) E. cloacae (Enterobacter cloacae; E. cloacae, 10 h cultivation at 37° C.): 25 µg/mL | MIC (μg/mL) P. mirabilis (Proteus mirabilis; P. mirabilis, 10 h cultivation at 37° C.): 12.5 µg/mL | MIC (μg/mL) S. marcescens (Serratia marcescens; S. marcescens, 10 h cultivation at 37° C.): 12.5 µg/mL | MIC (μg/mL) C. diversus (Citrobacter diversus; C. diversus, 10 h cultivation at 37° C.): 12.5 µg/mL | MIC (μg/mL) M. catarrhalis (Moraxella catarrhalis; M. catarrhalis, 10 h cultivation at 37° C.): 12.5 µg/mL | MIC (μg/mL) P. vulgaris (Proteus vulgaris; P. vulgaris, 10 h cultivation at 37° C.): 12.5 µg/mL | MIC (E. coli DH5α): 12.5 µg/mL | MIC (μg/mL) A. hydrophila (Aeromonas hydrophila; A. hydrophila, 10 h cultivation at 37° C.): 12.5 µg/mL | MIC (μg/mL) E. coli BL21 (E. coli BL21; 10 h cultivation at 37° C.): 50 µg/mL | MIC (μg/mL) P. aeruginosa (Pseudomonas aeruginosa; P. aeruginosa, 10 h cultivation at 37° C.): 25 µg/mL | MIC (μg/mL) K. pneumonia (Klebsiella pneumonia; K. pneumonia, 10 h cultivation at 37° C.): 12.5 µg/mL
